Experimental findings from patent publication US11472803B2, “7-substituted 1-aryl-naphthyridine-3-carboxylic acid amides and use thereof” (Bayer Aktiengesellschaft, priority 2016, dated 2022) are described below.

Experiment [1] addresses T1, human M2 receptor (Homo sapiens, UniProt P08172).
T1 construct: expressed in transfected cells; host or cells: CHO-DUKX (CHO-DUKX-M2-GIRK)
T1 sequence (P08172 1-466): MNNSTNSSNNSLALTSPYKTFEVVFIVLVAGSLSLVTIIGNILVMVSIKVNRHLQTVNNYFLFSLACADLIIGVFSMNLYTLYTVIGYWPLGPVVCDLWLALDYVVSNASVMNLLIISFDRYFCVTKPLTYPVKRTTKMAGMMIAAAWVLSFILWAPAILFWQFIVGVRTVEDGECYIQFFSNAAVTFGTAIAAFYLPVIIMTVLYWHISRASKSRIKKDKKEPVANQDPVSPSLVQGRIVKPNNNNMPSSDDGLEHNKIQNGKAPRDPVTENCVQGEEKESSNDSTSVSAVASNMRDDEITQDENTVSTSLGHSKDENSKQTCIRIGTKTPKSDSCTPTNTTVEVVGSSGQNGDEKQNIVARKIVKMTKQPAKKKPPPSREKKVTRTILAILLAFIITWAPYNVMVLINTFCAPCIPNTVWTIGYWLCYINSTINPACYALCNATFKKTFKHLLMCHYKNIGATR
In words: Functional M2-GIRK1/4 activation test: positive cooperativity (α factor), shift of acetylcholine dose-response curve. The conditions noted are these: Allosteric EC50 shift of acetylcholine 8-point dose-response curve; CHO-DUKX-M2-GIRK cells; α>1 = positive cooperativity. The class given is cell-based. An excerpt:
The binding of orthosteric agonists (endogenous ligand: acetylcholine) to the M2 receptor leads to receptor activation or a change in conformation of the receptor in the manner of a shift in equilibrium in favour of the active receptor conformation.
The agonist-induced change in conformation of the M2 receptor results in a Gαi protein activation. […] Under physiological conditions, the result is then a selective efflux of potassium from the cell along the electrochemical gradient. […] The extent of hyperpolarization can therefore be regarded as a measure of the activation of the M2 receptor.
The test cell used is a recombinant CHO-DUKX cell line which has been stably transfected with cDNA coding for the human M2 receptor and with cDNA coding for both GIRK1/4 subunits (CHO-DUKX-M2-GIRK). The transmembrane potential, or the relative changes in the transmembrane potential as a function of substance addition or M2 activation, is determined by means of a voltage-sensitive dye (FLIPR Membrane Potential Assay Kit Blue, Molecular Devices #R8034) and the measurement of cell fluorescence using a proprietary fluorescence imaging instrument.
In accordance with the desired test concentrations, the substances were pre-diluted in loading buffer (see above).
The sowing medium consisted of MEM alpha medium (supplemented with 5% PCS, 2% Glutamax, no genticin).
For the particular measurement, the medium was removed and the cells were laden with the volt-age-sensitive dye for at least 6 min at room temperature (30 μl of loading buffer per 384-well). This was followed, in a first measurement, by the determination of the resting transmembrane potential for a period of 5 sec in 1 sec increments. Thereafter, 10 μl in each case of the test substances diluted in loading buffer are added, followed by a second measurement to determine the transmembrane potential for a period of 50 sec in 1 sec increments.
Finally, the cells are admixed with 10 μl of agonist solution (acetylcholine dissolved in loading buffer). In contrast to the EC50 determination of the test substances (see B-1.1), however, this is not done using one acetylcholine concentration; instead, every concentration of the test substance is combined with an acetylcholine 8-point dose-response curve. […] The M2-mediated GIRK1/4 activation or hyperpolarization is then monitored in a third measurement over a period of 60 sec in 1 sec increments. The shift in the acetylcholine dose-response curve in the presence of increasing concentrations of the test substance is analysed and quantified by means of GraphPad PRISM (Allosteric EC50 shift). […] Positive cooperativity is the hallmark of a positive allosteric modulator. […] The greater the magnitude of the α value, the greater the extent of cooperativity between orthosteric and allosteric.

Experiment [2] has as its target T1, human M2 receptor. Put plainly: Functional M2-GIRK1/4 activation test: allosteric potency (EC50) and efficiency at EC20 acetylcholine. Particulars: CHO-DUKX-M2-GIRK cells; for EC50: voltage-sensitive dye, acetylcholine at EC20, in some cases mean of two or more determinations; for Emax: boosting of the acetylcholine effect at EC20 acetylcholine concentration. The class given is cell-based. The method, boiled down: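 CHO-DUKX cells stably expressing human M2 and GIRK1/4; membrane potential tracked with voltage-sensitive dye at room temperature. Compound added 50 s before acetylcholine at its EC20, then hyperpolarization read 60 s. EC50 (allosteric potency) and efficiency (boost of EC20 ACh effect) from 4-parameter Hill fit.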

Take `CC(C)C[C@@H](NC(=O)c1cn(-c2c(F)cc(F)cc2F)c2nc(N3C[C@@H](O)[C@H](O)C3)c(F)cc2c1=O)C(F)(F)F` [Example 14, 7-[(3R,45)-3,4-dihydroxypyrrolidin-1-yl]-6-fluoro-4-oxo-N-[(2R)-1,1,1-trifluoro-4-methylpentan-2-yl]-1-(2,4,6-trifluorophenyl)-1,4-dihydro-1,8-naphthyridine-3-carboxamide]: the “Cooperativity (alpha factor)” value on human M2 receptor [1] is 49. Besides, at human M2 receptor [2], the EC50 is 5.5 nM and the Emax was 100%.

On to `CC(C)[C@@H](C)NC(=O)c1cn(-c2c(F)cc(F)cc2F)c2nc(N3C[C@@H](O)[C@H](O)C3)c(F)cc2c1=O` [Example 15, 7-[(3R,4R)-3,4-dihydroxypyrrolidin-1-yl]-6-fluoro-N-[(2R)-3-methylbutan-2-yl]-4-oxo-1-(2,4,6-trifluorophenyl)-1,4-dihydro-1,8-naphthyridine-3-carboxamide], for which, at human M2 receptor [1], the “Cooperativity (alpha factor)” value was found to be 41. At human M2 receptor [2], this compound yielded an EC50 of 9.15 nM and an Emax of 96%.

With `CC(C)[C@H](C)NC(=O)c1cn(-c2c(F)cc(F)cc2F)c2nc(N3C[C@@H](O)[C@H](O)C3)c(F)cc2c1=O` [Example 16, 7-[(3R,4R)-3,4-dihydroxypyrrolidin-1-yl]-6-fluoro-N-[(2S)-3-methylbutan-2-yl]-4-oxo-1-(2,4,6-trifluorophenyl)-1,4-dihydro-1,8-naphthyridine-3-carboxamide], the “Cooperativity (alpha factor)” value on human M2 receptor [1] came to 42. On human M2 receptor [2], this compound gave an EC50 of 8.45 nM and an Emax of 99%.

For the compound `C[C@H](NC(=O)c1cn(-c2c(F)cc(F)cc2F)c2nc(N3C[C@@H](O)[C@H](O)C3)c(F)cc2c1=O)C(F)(F)F` [Example 18, 7-[(3R,4R)-3,4-dihydroxypyrrolidin-1-yl]-6-fluoro-4-oxo-1-(2,4,6-trifluorophenyl)-N-[(2S)-1,1,1-trifluoropropan-2-yl]-1,4-dihydro-1,8-naphthyridine-3-carboxamide], the “Cooperativity (alpha factor)” value on human M2 receptor [1] is 43. On human M2 receptor [2], the EC50 was determined as 20.5 nM and the Emax is 99%.

Regarding `CC(C)(NC(=O)c1cn(-c2c(F)cc(F)cc2F)c2nc(N3C[C@@H](O)[C@H](O)C3)c(F)cc2c1=O)C(F)F` [Example 22, N-(1,1-difluoro-2-methylpropan-2-yl)-7-[(3R,4R)-3,4-dihydroxypyrrolidin-1-yl]-6-fluoro-4-oxo-1-(2,4,6-trifluorophenyl)-1,4-dihydro-1,8-naphthyridine-3-carboxamide], the “Cooperativity (alpha factor)” value at human M2 receptor [1] is on record as 42. At human M2 receptor [2], this compound came in with an EC50 of 10 nM and an Emax of 95%.

As to `CC(C)(NC(=O)c1cn(-c2c(F)cc(F)cc2F)c2nc(N3C[C@@H](O)[C@H](O)C3)c(F)cc2c1=O)C(F)(F)F` [Example 23, 7-[(3R,4R)-3,4-dihydroxypyrrolidin-1-yl]-6-fluoro-4-oxo-N-(1,1,1-trifluoro-2-methylpropan-2-yl)-1-(2,4,6-trifluorophenyl)-1,4-dihydro-1,8-naphthyridine-3-carboxamide], the “Cooperativity (alpha factor)” value on human M2 receptor [1] is 41. Further, on human M2 receptor [2], a half-maximal response (EC50) required 5.5 nM and the Emax came out at 100%.

For the compound `CC(C)C(NC(=O)c1cn(-c2c(F)cc(F)cc2F)c2nc(N3C[C@@H](O)[C@H](O)C3)c(F)cc2c1=O)C(C)C` [Example 24, 7-[(3R,4R)-3,4-dihydroxypyrrolidin-1-yl]-N-(2,4-dimethylpentan-3-yl)-6-fluoro-4-oxo-1-(2,4,6-trifluorophenyl)-1,4-dihydro-1,8-naphthyridine-3-carboxamide], on human M2 receptor [1], the “Cooperativity (alpha factor)” value was determined as 57. In addition, on human M2 receptor [2], the 50% effective concentration (EC50) stood at 1.35 nM and the maximum response (Emax) came to 100%.

`CC(C)(NC(=O)c1cn(-c2c(F)cc(F)cc2F)c2nc(N3C[C@@H](O)[C@H](O)C3)c(F)cc2c1=O)C1CC1` [Example 25, N-(2-cyclopropylpropan-2-yl)-7-[(3R,4R)-3,4-dihydroxypyrrolidin-1-yl]-6-fluoro-4-oxo-1-(2,4,6-trifluorophenyl)-1,4-dihydro-1,8-naphthyridine-3-carboxamide]: the “Cooperativity (alpha factor)” value on human M2 receptor [1] is listed as 45. At human M2 receptor [2], this compound registered an EC50 of 4.05 nM and an Emax of 95%.

For the compound `CC[C@@H](NC(=O)c1cn(-c2c(F)cc(F)cc2F)c2nc(N3C[C@@H](O)[C@H](O)C3)c(F)cc2c1=O)C(F)(F)F` [Example 36, 7-[(3R,4R)-3,4-dihydroxypyrrolidin-1-yl]-6-fluoro-4-oxo-N-[(2R)-1,1,1-trifluorobutan-2-yl]-1-(2,4,6-trifluorophenyl)-1,4-dihydro-1,8-naphthyridine-3-carboxamide], at human M2 receptor [1], the “Cooperativity (alpha factor)” value is 51. Further, at human M2 receptor [2], the EC50 was determined as 5 nM and the Emax was determined as 92%.

Turning to `O=C(N[C@@H](C1CC1)C(F)(F)F)c1cn(-c2c(F)cc(F)cc2F)c2nc(N3C[C@@H](O)[C@H](O)C3)c(Cl)cc2c1=O` [Example 37, 6-chloro-N-[(1S)-1-cyclopropyl-2,2,2-trifluoroethyl]-7-[(3R,4R)-3,4-dihydroxypyrrolidin-1-yl]-4-oxo-1-(2,4,6-trifluorophenyl)-1,4-dihydro-1,8-naphthyridine-3-carboxamide], the “Cooperativity (alpha factor)” value at human M2 receptor [1] was found to be 38. Moreover, on human M2 receptor [2], the EC50 turned out to be 6 nM and the maximal response (Emax) came out at 100%.

Regarding `CC(C)(NC(=O)c1cn(-c2c(F)cc(F)cc2Cl)c2nc(N3C[C@@H](O)[C@H](O)C3)c(F)cc2c1=O)C(F)(F)F` [Example 41, 1-(2-chloro-4,6-difluorophenyl)-7-[(3R,4R)-3,4-dihydroxypyrrolidin-1-yl]-6-fluoro-4-oxo-N-(1,1,1-trifluoro-2-methylpropan-2-yl)-1,4-dihydro-1,8-naphthyridine-3-carboxamide], the “Cooperativity (alpha factor)” value on human M2 receptor [1] is 37. Moreover, at human M2 receptor [2], the concentration for a half-maximal effect (EC50) is 3.3 nM and the Emax worked out at 100%.

Turning to `CC1(O)CN(c2nc3c(cc2F)c(=O)c(C(=O)N[C@@H](C2CC2)C(F)(F)F)cn3-c2c(F)cc(F)cc2F)C1` [Example 53, N-[(1S)-1-Cyclopropyl-2,2,2-trifluoroethyl]-6-fluoro-7-(3-hydroxy-3-methylazetidin-1-yl)-4-oxo-1-(2,4,6-trifluorophenyl)-1,4-dihydro-1,8-naphthyridine-3-carboxamide], the “Cooperativity (alpha factor)” value at human M2 receptor [1] turned out to be 30. At human M2 receptor [2], this compound registered an EC50 of 16 nM and an Emax of 100%.

As to `O=C(N[C@@H](C1CC1)C(F)(F)F)c1cn(-c2c(F)cc(F)cc2F)c2nc(N3CC(O)C3)c(F)cc2c1=O` [Example 54, N-[(1S)-1-Cyclopropyl-2,2,2-trifluoroethyl]-6-fluoro-7-(3-hydroxyazetidin-1-yl)-4-oxo-1-(2,4,6-trifluorophenyl)-1,4-dihydro-1,8-naphthyridine-3-carboxamide], on human M2 receptor [1], the “Cooperativity (alpha factor)” value came to 30. At human M2 receptor [2], the half-maximal effective concentration (EC50) was 25 nM and the Emax came to 100%.

Take `O=C(N[C@@H](C1CC1)C(F)(F)F)c1cn(-c2c(F)cc(F)cc2F)c2nc(N3CC(CO)(CO)C3)c(F)cc2c1=O` [Example 84, 7-[3,3-Bis(hydroxymethyl)azetidin-1-yl]-N-[(1S)-1-cyclopropyl-2,2,2-trifluoroethyl]-6-fluoro-4-oxo-1-(2,4,6-trifluorophenyl)-1,4-dihydro-1,8-naphthyridine-3-carboxamide]: the “Cooperativity (alpha factor)” value on human M2 receptor [1] amounted to 39. On human M2 receptor [2], the EC50 was 8.35 nM and the Emax is 88%.
